Assay results published in patent US20250177412A1, “SMALL-MOLECULE INHIBITORS TARGETING THE BOB1/OCT1 INTERFACE” (NANTES UNIVERSITE, priority 2022, published 2025).

What was measured:
[1] = tested on: BOB1/OCT1-mediated transcription; assay: Luciferase reporter assay (transient transfection, 6xPORE-luc); type: cell-based, human; details: 10 μM in the culture medium
Description: FIGS. 1A-C are a combination of graphs showing that compound 005 inhibits BOB1/OCT1-mediated transcription in vitro. HEC293Ea1 cells, known to express endogenous OCT1, were co-transfected with […] reporter, pEV-OBF1 (BOB1) effector, and pCMV-β-gal calibrator plasmids. Luciferase and β-galactosidase activities were measured 48 hours after transfection. The 100% luciferase activity was set as activity in presence of vehicle (10 μM DMSO). […] All experiments are performed at least in triplicates. Bars indicate the mean±SEM. * P<0.05, ** P<0.01, *** P<0.001, **** P<0.0001.
The HEK293E1a cells were seeded at density 1.2×10^4 per well on 48-well plate in DMEM medium containing 10% fetal calf serum. After 24 hours cells were transfected with plasmid mix (300 ng/well) containing specified amounts of the p6×PORE-luc reporter, pEV-OBF1 and pCG-Oct1 effector, pBluescript II KS+ carrier, and pCMV-βgal (for standardization) as previously described. The transfections were carried out in three biological replicates, using Polyethylenimine (PEI 25K, Polysciences Inc.) at the ratio 2:1 to DNA. After 48 hours, cells were washed with PBS, lysed, and measured for luciferase activity, using the Bright-Glo luciferase assay system (Promega), and for β-galactosidase activity in a standard assay.
BOB1 has been described as a coactivator acting in cooperation with the POU-domain proteins OCT1 and OCT2 bound to distinct DNA-motifs either in monomeric or dimeric configurations. […] As an initial functional assay, we examined the ability of the compounds according to the present invention to affect BOB1-OCT1-PORE-mediated transcriptional activation in transient transfection luciferase assay. To this end, we made use of previously generated 6×PORE-luc and reporter plasmid, in which hexamers of the PORE were cloned upstream of the thymidine kinase (tk) minimal promoter and luciferase gene. […] Furthermore, the addition of a plasmid expressing exogenous OCT1 exerted an inhibitory effect on both basal and BOB1-mediated transcription (data not shown). This observation is likely due to the fact that HEK293 cells, like all other mammalian cell types, express OCT1, and further addition of exogenous OCT1 in these cells shifts the BOB1/OCT1 equilibrium out of optimal range, resulting in squelching effect, and in our experimental setup, in about 3-fold stimulation, as compared to that by endogenous OCT1 alone (FIG. 1A). […] Compound 005 was selected for further detailed investigation.

[2] = target: OCT1 (endogenous) + BOB1 (transfected) (Homo sapiens) (UniProt P14859+Q16633); assay: cell_activity; details: BOB1 stimulation over endogenous OCT1 alone, HEK293 luciferase; attenuated by compounds 004, 005, 006 at 10 uM
Chain of OCT1 (endogenous) + BOB1 (transfected) (Homo sapiens) (P14859 other isoform, or with tags, fused parts or gaps, chain 1 of 2): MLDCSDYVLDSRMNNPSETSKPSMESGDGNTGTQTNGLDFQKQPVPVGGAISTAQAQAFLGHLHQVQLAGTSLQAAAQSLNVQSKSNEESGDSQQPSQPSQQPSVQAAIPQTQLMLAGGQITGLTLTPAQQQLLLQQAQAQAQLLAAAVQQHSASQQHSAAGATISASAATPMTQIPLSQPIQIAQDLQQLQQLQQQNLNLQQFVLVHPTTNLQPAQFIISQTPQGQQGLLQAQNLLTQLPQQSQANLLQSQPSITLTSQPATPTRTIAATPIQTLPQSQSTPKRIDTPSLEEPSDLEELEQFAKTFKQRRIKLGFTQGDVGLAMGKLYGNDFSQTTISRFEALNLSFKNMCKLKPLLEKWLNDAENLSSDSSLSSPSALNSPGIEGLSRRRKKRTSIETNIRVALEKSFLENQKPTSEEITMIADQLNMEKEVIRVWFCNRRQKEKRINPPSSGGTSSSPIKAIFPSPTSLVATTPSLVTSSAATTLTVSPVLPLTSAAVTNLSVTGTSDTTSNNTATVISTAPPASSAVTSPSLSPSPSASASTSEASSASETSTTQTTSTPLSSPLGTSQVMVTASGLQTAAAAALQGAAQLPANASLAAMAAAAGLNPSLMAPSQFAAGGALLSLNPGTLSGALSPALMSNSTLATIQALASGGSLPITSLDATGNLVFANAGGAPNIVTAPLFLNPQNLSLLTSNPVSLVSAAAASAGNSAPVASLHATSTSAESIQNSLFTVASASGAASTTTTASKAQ
Chain of OCT1 (endogenous) + BOB1 (transfected) (Homo sapiens) (Q16633 whole entry, chain 2 of 2): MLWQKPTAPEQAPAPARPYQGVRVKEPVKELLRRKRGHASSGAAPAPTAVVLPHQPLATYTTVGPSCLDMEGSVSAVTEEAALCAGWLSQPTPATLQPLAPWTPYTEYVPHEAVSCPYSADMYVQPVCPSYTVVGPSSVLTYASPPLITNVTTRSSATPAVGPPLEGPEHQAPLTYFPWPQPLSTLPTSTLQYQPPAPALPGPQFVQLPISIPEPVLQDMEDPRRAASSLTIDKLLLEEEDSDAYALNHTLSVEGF

| BOB1/OCT1-driven transcription (relative luciferase activity) [1] | Molecule | activity [2] [fold] |
| --- | --- | --- |
| significantly attenuated | O=C(Nc1ccc(Br)c(C(F)(F)F)c1)C1CCCCN1c1nc(NCc2cccc(F)c2)nc(N(CCO)CCO)n1 (stereo not drawn) [compound 004, 1-(4-(bis(2-hydroxyethyl)amino)-6-((3-fluorobenzyl)amino)-1,3,5-triazin-2-yl)-N-(4-bromo-3-(trifluoromethyl)phenyl)piperidine-2-carboxamide] |  |
|  | 6xPORE-tk-luc reporter | 3 |
| significantly attenuated | O=C(O)CCNc1nc(NCCCc2ccc(F)cc2)nc(N2CCCC(C(=O)N3CCC(Cc4ccccc4)CC3)C2)n1 (stereo not drawn) [compound 006, 3-((4-(3-(4-benzylpiperidine-1-carbonyl)piperidin-1-yl)-6-((3-(4-fluorophenyl)propyl)amino)-1,3,5-triazin-2-yl)amino)propanoic acid] |  |
